The source of these data is US20040157863A1, “Triazolopyrimidines” (priority 2001, published 2004).

SMILES strings stand for the structures. Where two headings read alike, the source gives them in different places.

One series relates to Podosphaera leucotricha. The series is described as follows: Podosphaera test (apple)/protective. As to conditions: apple plants, protective spray, application rate 100 g/ha, evaluation 10 days after inoculation.
For a further series, the system named is Venturia inaequalis. Kind of series: Venturia test (apple)/protective. As to conditions: apple plants, protective spray, application rate 100 g/ha, evaluation 12 days after inoculation.

Procedure for Podosphaera leucotricha: Podosphaera Test (Apple)/Protective
After the spray coating has dried on, the plants are inoculated with an aqueous spore suspension of the apple mildew pathogen Podosphaera leucotricha. The plants are then placed in the greenhouse at about 23° C. and a relative atmospheric humidity of about 70%.
Evaluation is carried out 10 days after the inoculation.
Procedure for Venturia inaequalis: Venturia Test (Apple)/Protective
After the spray coating has dried on, the plants are inoculated with an aqueous conidia suspension of the apple scab pathogen Venturia inaequalis and then remain in an incubation cabin at about 20° C. and 100% relative atmospheric humidity for one day.
The plants are then placed in a greenhouse at about 21° C. and a relative atmospheric humidity of about 90%.
Evaluation is carried out 12 days after the inoculation.

In general, chromatographic logP refers to lipophilicity estimated from chromatographic retention. Lower therefore signals lower lipophilicity. For the compound `CSc1nc2nc(Cl)c(-c3c(F)cc(F)cc3F)c(N3CCC(C(F)(F)F)CC3)n2n1` [Example 1, 5-chloro-2-(methylsulphanyl)-7-[4-(trifluoromethyl)-1-piperidinyl]-6-(2,4,6-trifluorophenyl)-[1,2,4]triazolo[1,5-a]pyrimidine], the chromatographic logP in “logP (HPLC)” was determined as 4.1.

Compound `C[C@H](Nc1c(-c2c(F)cc(F)cc2F)c(Cl)nc2nc(S(C)(=O)=O)nn12)C(F)(F)F` [Example 2a, 5-chloro-2-(methylsulphonyl)-N-[(1S)-2,2,2-trifluoro-1-methylethyl]-6-(2,4,6-tri-fluorophenyl)[1,2,4]triazolo[1,5-a]pyrimidin-7-amine] displayed a chromatographic logP in the series “logP (HPLC)” (HPLC) of 2.94. `C[C@H](Nc1c(-c2c(F)cc(F)cc2F)c(Cl)nc2nc([S+](C)[O-])nn12)C(F)(F)F` (stereo partly drawn) [Example 2b, 5-chloro-2-(methylsulphinyl)-N-[(1S)-2,2,2-trifluoro-1-methylethyl]-6-(2,4,6-trifluorophenyl)[1,2,4]triazolo[1,5-a]pyrimidin-7-amine] came in with a chromatographic logP in “logP (HPLC)” (HPLC) of 2.5. Turning to `CSc1nc2nc(Cl)c(-c3c(F)cc(F)cc3F)c(Cl)n2n1` [Example 568, 5,7-dichloro-2-(methylsulphanyl)-6-(2,4,6-trifluorophenyl)-[1,2,4]triazolo[1,5-a]pyrimidine], the chromatographic logP in “logP (HPLC)” came out at 3.43. `CSc1nc2nc(Cl)c(-c3c(Cl)cccc3Cl)c(Cl)n2n1` [Example 572] came in with a chromatographic logP in the series “logP (HPLC)” of 3.86. In the series “logP (HPLC)”, `CSc1nc2nc(O)c(-c3c(F)cc(F)cc3F)c(O)n2n1` [Example 585, 2-methylsulphanyl-6-(2,4,6-trifluoro-phenyl)-[1,2,4]triazolo[1,5-a]pyrimidine-5,7-diol] displayed a chromatographic logP of 0.47. On to `CS(=O)(=O)c1nc2nc(Cl)c(-c3c(Cl)cccc3Cl)c(NC3CCCC3)n2n1` [compound 6], for which, in “logP (HPLC)” (HPLC (gradient method)), the chromatographic logP amounted to 3.35. Turning to `CSc1nc2nc(Cl)c(-c3c(Cl)cccc3Cl)c(N[C@@H](C)C(F)(F)F)n2n1` [compound 8], in “logP (HPLC)” (HPLC (gradient method)), the chromatographic logP is 3.82. In “logP (HPLC)” (HPLC (gradient method)), `CSc1nc2nc(Cl)c(-c3c(F)cc(F)cc3F)c(N[C@@H](C)C(F)(F)F)n2n1` [compound 9] registered a chromatographic logP of 3.58.

With `CSc1nc2nc(Cl)c(-c3c(Cl)cccc3Cl)c(N[C@@H](C)C(F)(F)F)n2n1` [drawing 57], in the series on Podosphaera leucotricha, the Efficacy in % is listed as 100%. As to `CSc1nc2nc(Cl)c(-c3c(F)cc(F)cc3F)c(N[C@@H](C)C(F)(F)F)n2n1` [drawing 58], the Efficacy in % in the series with Podosphaera leucotricha is 94%. As to `CSc1nc2nc(Cl)c(-c3c(Cl)cccc3Cl)c(N[C@@H](C)C(F)(F)F)n2n1` [drawing 60], the Efficacy in % with Venturia inaequalis is recorded as 100%.

Consider `CSc1nc2nc(Cl)c(-c3c(F)cc(F)cc3F)c(N[C@@H](C)C(F)(F)F)n2n1` [drawing 61], for which the Efficacy in % with Venturia inaequalis worked out at 100%.
